Measurements from article PMC8772704, “Quantification of Fosfomycin in Combination with Nine Antibiotics in Human Plasma and Cation-Adjusted Mueller-Hinton II Broth via LCMS” (Antibiotics, 2022).

Experiments:
[1] = Plasma concentrations in four patients on fosfomycin-based combination therapy (pilot clinical feasibility study, LCMS/MS)
Protocol: For 20 µL of plasma/CAMHB sample, 20 µL of water and 20 µL of stable-isotope as internal standard (IS) were added and vortexed. 180 µL of acetonitrile was added for protein precipitation and subsequently removed by centrifugation (12,700 rpm for 10 min at 25 °C). Finally, 15 µL of the supernatant was diluted with 225 µL formic acid in water (0.1% v/v), and 10 µL was injected for LCMS/MS analysis. For the calibration curve and QCs, 20 µL of the corresponding antibiotic standard working solution was added instead of water.
Samples were analyzed using a Nexera X2 LCMS 8060 system (Shimadzu, Kyoto, Japan). […] Electrospray ionization employing positive and negative ion mode with multiple reaction monitoring was used for analyte quantification (Table S1). Data were acquired and analyzed using Shimadzu LabSolutions (Version 5.97).
The assay method described in this paper has been applied to a pilot clinical feasibility study to evaluate the proportion of patients with sub-optimal β-lactam levels and the need for dose adjustments in infected patients with unpredictable pharmacokinetics. We described a case series of four patients where they received in vitro guided antibiotic combination therapy using a fosfomycin-based combination regimen to treat a carbapenem-resistant Gram-negative bacteria infection. These four patients were recruited into the BLAST-2 study as the combination regimen contains a β-lactam antibiotic. In this case series, two were undergoing intermittent hemodialysis, and two patients had normal renal function. In the two patients on hemodialysis, they were on a dosing regimen of 8 g of fosfomycin on dialysis days (3 g at least 4 h before dialysis session and 5 g after completion of dialysis). The remaining two patients received 8 g of fosfomycin given every 8 h as a prolonged infusion.
Blood samples (2–3 mL from an indwelling catheter) were collected four times over a dosing interval of the β-lactam dosing regimen and centrifuged (10 min at 3000 rpm) (Eppendorf 5425R). The resultant plasma was stored (within 15 min of collection) at −80 °C until assay.

[2] = Autosampler stability at 4 °C of extracted antibiotic-spiked plasma/CAMHB samples; details: for Mean accuracy (%), Table S8 / Mean accuracy (%), Table S10: CAMHB extracted samples; for Mean accuracy (%), Table S8 / Mean accuracy (%), Table S7: 7 h autosampler 4 °C; for Mean accuracy (%), Table S10 / Mean accuracy (%), Table S9: 15 h autosampler 4 °C; for Mean accuracy (%), Table S7 / Mean accuracy (%), Table S9: plasma extracted samples
Protocol: (§1) The stability of fosfomycin in combination with other antibiotics in plasma/CAMHB was evaluated under various operational conditions. Spiked plasma/CAMHB samples were evaluated at 7 h and 15 h in the autosampler at 4 °C. Long-term stability was evaluated up to 4 weeks of antibiotic-spiked plasma/CAMHB samples at LQC, MQC, and HQC concentrations stored at −30 °C and −80 °C.

[3] = 32-day stability of stock solutions stored at −80 °C; assay type: physicochemical; details: stock solution stored at -80 °C; peak area Day 32 vs Day 1
Protocol: Stability of stock solutions
All stock solutions of antibiotics and their corresponding stable-isotope variants were measured prior to cold storage at -80 °C and tested at 32 days later.
Stability was determined by comparing the peak area of each drug between its Day 1 and Day 32 measurement. Acceptable criteria for stability was met if the […]

[4] = Long-term storage stability of antibiotics in combination with fosfomycin spiked in plasma/CAMHB (−30 °C, −80 °C); assay type: physicochemical; details: for Stability verdict (within ±15% of nominal): CAMHB samples stored at −30 °C, 4 weeks; for Mean accuracy (%), Table S15 / Mean accuracy (%), Table S17 / Mean accuracy (%), Table S16 / Mean accuracy (%), Table S18: CAMHB; for Mean accuracy (%), Table S15 / Mean accuracy (%), Table S17 / Mean accuracy (%), Table S16 / Mean accuracy (%), Table S18 / Mean accuracy (%), Table S11 / Mean accuracy (%), Table S13 / Mean accuracy (%), Table S12 / Mean accuracy (%), Table S14: combination with fosfomycin; for Mean accuracy (%), Table S15 / Mean accuracy (%), Table S11: 2 weeks at -30 °C; for Mean accuracy (%), Table S17 / Mean accuracy (%), Table S13: 2 weeks at -80 °C; for Mean accuracy (%), Table S16 / Mean accuracy (%), Table S12: 4 weeks at -30 °C; for Mean accuracy (%), Table S18 / Mean accuracy (%), Table S14: 4 weeks at -80 °C; for Mean accuracy (%), Table S11 / Mean accuracy (%), Table S13 / Mean accuracy (%), Table S12 / Mean accuracy (%), Table S14: plasma
Protocol: as §1

[5] = HQC: nominal mg/L CAZ 150, FEP 200, PIP 250, ATM 300, MEM 200, DOR 175, LVX 30, CEFT 250, TZB 87.5, TGC 20, AVI 30, FOF 1000
[6] = LQC: nominal 1 mg/L (levofloxacin, avibactam 0.5; fosfomycin 10)
[7] = MQC: nominal mg/L CAZ 75, FEP 100, PIP 150, ATM 150, MEM 100, DOR 87.5, LVX 15, CEFT 125, TZB 43.75, TGC 10, AVI 15, FOF 500

| SMILES | Mean accuracy (%), Table S8 ([2]; HQC (nominal as E15)) [%] | Mean accuracy (%), Table S8 ([2]; LQC (nominal as E13)) [%] | Mean accuracy (%), Table S8 ([2]; MQC (nominal as E14)) [%] | Mean accuracy (%), Table S10 ([2]; HQC (nominal as E15)) [%] | Mean accuracy (%), Table S10 ([2]; LQC (nominal as E13)) [%] | Mean accuracy (%), Table S10 ([2]; MQC (nominal as E14)) [%] | Mean accuracy (%), Table S7 [2, 5] [%] | Mean accuracy (%), Table S7 [2, 6] [%] | Mean accuracy (%), Table S7 [2, 7] [%] | 32 Day Stability (%) [3] [%] | Stability verdict (within ±15% of nominal) [4] | Mean accuracy (%), Table S15 ([4]; HQC (nominal as E15)) [%] | Mean accuracy (%), Table S15 ([4]; LQC (nominal as E13)) [%] | Mean accuracy (%), Table S15 ([4]; MQC (nominal as E14)) [%] | Mean accuracy (%), Table S17 ([4]; HQC (nominal as E15)) [%] | Mean accuracy (%), Table S17 ([4]; LQC (nominal as E13)) [%] | Mean accuracy (%), Table S17 ([4]; MQC (nominal as E14)) [%] | Mean accuracy (%), Table S16 ([4]; HQC (nominal as E15)) [%] | Mean accuracy (%), Table S16 ([4]; LQC (nominal as E13)) [%] | Mean accuracy (%), Table S16 ([4]; MQC (nominal as E14)) [%] | other results |
| --- | --- | --- | --- | --- | --- | --- | --- | --- | --- | --- | --- | --- | --- | --- | --- | --- | --- | --- | --- | --- | --- |
| C[C@H]1[C@H](NC(=O)/C(=N\OC(C)(C)C(=O)O)c2csc(N)n2)C(=O)N1S(=O)(=O)O [Aztreonam, aztreonam] | 99.3 | 109.7 | 107.5 | 104.4 | 103.7 | 104.7 | 109.1 | 100.8 | 101.2 | 99.75 | instability | 102.6 | 102.2 | 92.5 | 100.2 | 101.3 | 95.1 | 92.5 | 66.5 | 91.8 | Mean total plasma concentration (range) ([1]; Patient 002, intermittent hemodialysis, aztreonam 2 g every 12 h as a 2-h infusion): 8.8 to 86.2 mg/L; Mean accuracy (%), Table S9 ([2]; HQC (nominal as E15)): 107.9%; Mean accuracy (%), Table S9 ([2]; LQC (nominal as E13)): 105.8%; Mean accuracy (%), Table S9 ([2]; MQC (nominal as E14)): 102.4%; Mean accuracy (%), Table S18 ([4]; HQC (nominal as E15)): 98.4%; Mean accuracy (%), Table S18 ([4]; LQC (nominal as E13)): 109.7%; Mean accuracy (%), Table S18 ([4]; MQC (nominal as E14)): 96.0%; Mean accuracy (%), Table S11 ([4]; HQC (nominal as E15)): 97.3%; Mean accuracy (%), Table S11 ([4]; LQC (nominal as E13)): 103.1%; Mean accuracy (%), Table S11 ([4]; MQC (nominal as E14)): 90.2%; Mean accuracy (%), Table S13 ([4]; HQC (nominal as E15)): 97.2%; Mean accuracy (%), Table S13 ([4]; LQC (nominal as E13)): 87.6%; Mean accuracy (%), Table S13 ([4]; MQC (nominal as E14)): 94.5%; Mean accuracy (%), Table S12 ([4]; HQC (nominal as E15)): 96.1%; Mean accuracy (%), Table S12 ([4]; LQC (nominal as E13)): 106.4%; Mean accuracy (%), Table S12 ([4]; MQC (nominal as E14)): 96.2%; Mean accuracy (%), Table S14 ([4]; HQC (nominal as E15)): 97.8%; Mean accuracy (%), Table S14 ([4]; LQC (nominal as E13)): 104.2%; Mean accuracy (%), Table S14 ([4]; MQC (nominal as E14)): 101.4% |
| CO/N=C(\C(=O)N[C@@H]1C(=O)N2C(C(=O)[O-])=C(C[N+]3(C)CCCC3)CS[C@H]12)c1csc(N)n1 [Cefepime, cefepime] | 96.7 | 112.0 | 103.5 | 101.7 | 106.6 | 114.1 | 86.5 | 94.2 | 101.1 | 108.51 | instability | 95.3 | 100.9 | 102.0 | 94.8 | 108.8 | 98.7 | 93.2 | 91.1 | 94.9 | Mean total plasma concentration (range) ([1]; Patient 003, intermittent hemodialysis, cefepime 1 g every 12 h as a 4-h infusion): 21.6 to 157.5 mg/L; Mean accuracy (%), Table S18 ([4]; HQC (nominal as E15)): 93.2%; Mean accuracy (%), Table S18 ([4]; LQC (nominal as E13)): 107.6%; Mean accuracy (%), Table S18 ([4]; MQC (nominal as E14)): 102.8%; Mean accuracy (%), Table S11 ([4]; HQC (nominal as E15)): 89.3%; Mean accuracy (%), Table S11 ([4]; LQC (nominal as E13)): 98.6%; Mean accuracy (%), Table S11 ([4]; MQC (nominal as E14)): 87.2%; Mean accuracy (%), Table S13 ([4]; HQC (nominal as E15)): 89.0%; Mean accuracy (%), Table S13 ([4]; LQC (nominal as E13)): 102.0%; Mean accuracy (%), Table S13 ([4]; MQC (nominal as E14)): 94.3%; Mean accuracy (%), Table S12 ([4]; HQC (nominal as E15)): 89.6%; Mean accuracy (%), Table S12 ([4]; LQC (nominal as E13)): 100.5%; Mean accuracy (%), Table S12 ([4]; MQC (nominal as E14)): 97.4%; Mean accuracy (%), Table S14 ([4]; HQC (nominal as E15)): 95.7%; Mean accuracy (%), Table S14 ([4]; LQC (nominal as E13)): 111.6%; Mean accuracy (%), Table S14 ([4]; MQC (nominal as E14)): 101.3% |
